Experimental data as given in patent publication US20110105397A1, “METHOD FOR TREATING HEART FAILURE WITH STRESSCOPIN-LIKE PEPTIDES” (priority 2009, published 2011).

Tested on: healthy subjects
Assay: Human hemodynamics (impedance cardiography), healthy subjects, 7.5-hour ascending dose IV infusion
Type: in vivo
Conditions: for Heart Rate Change from Baseline / Heart Rate Percent Change from Baseline: post hoc analysis
Method: Efficacy was based on the pharmacodynamic evaluation of hemodynamics, which was monitored using the noninvasive technique of impedance cardiography. Heart rate values were collected by impedance cardiography measurements. It was noted that the heart rate of subjects receiving placebo were elevated on the day of their infusions, at baseline before the infusion, and for the first 3 to 4 hours after the infusions were started (FIG. 17). Based on this observation, it appeared that there was a potential effect of period on the observed heart rate.
A mixed-effect model with baseline as covariate, period and dose group (≦3 ng/kg/min−low, >3 to ≦36 ng/kg/min−mid, >36 ng/kg/min−high) as fixed effects, and a random subject effect was established using the heart rate change from baseline in healthy subjects.
To confirm that the statistically significant increase in heart rate is caused by the high dose group, a similar mixed-effect model that excluded the high dose level (>36 ng/kg/min) group was built up.
A post hoc graphical analysis of the hemodynamic data was done to adjust for the elevated baseline values seen just before onset of the infusion, to obtain the best estimate of each hemodynamic parameter, and to correct for the effect of period. A post hoc graphic presentation was prepared from the complete (high frequency) dataset. This dataset contains the raw data that were further processed by the vendor (ie, CardioDynamics) and reported only at specific time points.
In this post hoc analysis an extended baseline was used for each value that included all values recorded before initiation of the infusion. Then an average value for each parameter was obtained from the last 30 minutes of each 2.5 hour infusion and was used as the effect in that period of the infused dose. Each value was modified for the effect of period of infusion by subtracting the mean change from baseline seen in placebo subjects dosed in that same period (placebo subtraction). The dose effect was estimated by averaging the values from all subjects who received the same dose after the placebo subtraction.

Q: Which results are given for “H-TKFTLSLDVPTNIMNLLFNIAKAKNLRAQAAANAHLMAQI-NH2 [SEQ ID NO: 1, TKFTLSLDVPTNIMNLLFNIAKAKNLRAQAAANAHLMAQI-NH2]”?
A: cardiac output or cardiac index (all doses ≦36 ng/kg/min): no change in cardiac output or cardiac index; heart rate compared with baseline (doses less than 36 ng/kg/min): no notable increase in heart rate compared with baseline; increase in heart rate from baseline (doses of 72 ng/kg/min and higher, end of 2.5-hour infusion period): ~30 bpm; Heart Rate Change from Baseline (infusion rate 0.1 ng/kg/min): −2.8 bpm; Heart Rate Percent Change from Baseline (infusion rate 0.1 ng/kg/min): −4.6%; Heart Rate Change from Baseline (infusion rate 0.3 ng/kg/min): −0.4 bpm; Heart Rate Percent Change from Baseline (infusion rate 0.3 ng/kg/min): −0.2%; Heart Rate Change from Baseline (infusion rate 1 ng/kg/min): −2.0 bpm; Heart Rate Percent Change from Baseline (infusion rate 1 ng/kg/min): −3.3%; Heart Rate Change from Baseline (infusion rate 3 ng/kg/min): 1.3 bpm; Heart Rate Percent Change from Baseline (infusion rate 3 ng/kg/min): 2.6%; Heart Rate Change from Baseline (infusion rate 9 ng/kg/min): 0.1 bpm; Heart Rate Percent Change from Baseline (infusion rate 9 ng/kg/min): 0.6%; Heart Rate Change from Baseline (infusion rate 18 ng/kg/min): 2.1 bpm; Heart Rate Percent Change from Baseline (infusion rate 18 ng/kg/min): 3.9%; Heart Rate Change from Baseline (infusion rate 36 ng/kg/min): 5.2 bpm; Heart Rate Percent Change from Baseline (infusion rate 36 ng/kg/min): 9.4%; Heart Rate Change from Baseline (infusion rate 54 ng/kg/min): 12.7 bpm; Heart Rate Percent Change from Baseline (infusion rate 54 ng/kg/min): 20.5%; Heart Rate Change from Baseline (infusion rate 72 ng/kg/min): 18.1 bpm; Heart Rate Percent Change from Baseline (infusion rate 72 ng/kg/min): 30.3%; Heart Rate Change from Baseline (infusion rate 108 ng/kg/min): 20.9 bpm; Heart Rate Percent Change from Baseline (infusion rate 108 ng/kg/min): 31.3%; Heart Rate Change from Baseline (infusion rate 144 ng/kg/min): 21.2 bpm; Heart Rate Percent Change from Baseline (infusion rate 144 ng/kg/min): 34.3%
